Data on five compounds can be found in patent US9206209B2, “Nucleotide analogue, method of synthesis of nucleotide analogue, use of nucleotide analogue, antiviral pro-nucleotide, pharmaceutical composition” (priority 2010, dated 2015).

The CC50 is the concentration that lowers cell viability or growth by half. By EC90 is commonly meant the point of the concentration-response curve where the effect stands at 90%. One may read the pEC50 as −log10 of the EC50, conventionally taken in molar units.

pEC50: −log10 of the molar value. Where two headings read alike, the source gives them in different places. Some results are limits rather than exact numbers.

The subject of series [1] is CEM-T4 cells. The series is described as follows: Cytotoxicity determination (MTT test, 7 days). The format is cell-based. On the procedure: (§1) Cytotoxicity and anti-HIV activity of the compounds (XVIa-c) described above were examined in CEM-T4 cells according procedures described below.
(§2) Cytotoxicity determination—CC50 and CC90 parameters—For determination of compounds (XVIa-c) cytotoxicity CEM-T4 and CEM-A were cultured in standard conditions (37° C., 5% CO2) on 96 wells culture plates in media RPMI/FCS 10% (v/v). Experiments were carried out in media contained tested compounds in concentrations of appropriate range. Cultures in neat medium (RPMI, 10% FCS) were used as a control ones. Viability of cells were determined after 7 days using MTT test in which to each well of culture plate were added 10 μL of MTT solution (5 mg/mL) and cultures were incubated 3 hours in temperature 37° C. After centrifugation supernatant was removed and DMSO was added to lyse the cells and to dissolve crystals of farmazan. Measurement of colour intensity was done using a plate reader (λ560 nm).
(§3) Cytotoxicity calculation—reference absorbancy (K) was an average of measurements for five well of culture plate and accounts for 100% CEM-T4 or CEM-A cells viability. In each case absorbancy for cells cultured in media enriched with tested compounds was calculated as average of at least three measurements.
(§4) Cells viability (P) were calculated according to formula:
(§5) [formula] in which P—viability of cells, K—reference absorbancy, A—absorbancy for cells cultured in media enriched with tested compounds, T—absorbancy for neat medium (RPMI/10% FBS). On the basis of calculations graph showing dependence of viability and concentrations of tested compounds values of CC50 and CC90 were determined
On the technique in general: Tetrazolium dyes change colour on reduction, which living cells bring about.

Series [2] deals with HIV. The experiment in a line: Anti-HIV activity (inhibition of HIV replication, viral protein p24) in CEM-T4 cells. The series is classed as cell-based. Particulars: for EC90: 90% inhibition of HIV replication; for SI50: selectivity index, CC50 vs EC50, CEM-T4 cells. As for the experimental part:
as §1
Anti HIV activity (EC50 and EC90)—parameter EC50 is defined as concentration of compounds in which replication of HIV is inhibited by 50% and parameter EC90 is defined as concentration of compounds in which replication of HIV is inhibited by 90%. To determine these parameters CEM-T4 cells were preincubated 24 hours in standard conditions (37° C., 5% CO2) in standard medium [RPMI, FCS 10% (v/v)] enriched with tested compounds in concentrations in range 0.001-20 μM. Incubations were performed with 96 flat bottom wells culture plates. In each well 20000 cells were suspended in solution of tested compound (200 μL). For each concentration four cultures were done. As a reference, media containing AZT in concentration 1.25 μM, 2.5 μM, 5.0 μM, 10.0 μM, 20 μM were used. As a positive control of maximal replication of HIV, culture in neat standard medium [RPMI/FCS 10% (v/v)] was used. After 24 hours of incubation in medium enriched with tested compound and AZT, cells were inoculated with known amount of HIV and cultivation was continued 8 days and after this the amount of viral protein p24 (marker of HIV replication) was measured. Inhibition of HIV replication is presented as percentage of p24 content in culture performed with media containing tested compound and assuming that amount of p24 measured in control correspond 100% of HIV replication. The examinations of each tested substance for each concentration were run in triplicate.

In series [3] the test system is CEM-T4 cells. Particulars: cited from earlier work.
The subject of series [4] is HIV. The arrangement: SI50: unit not given beside the values. Particulars: *Estimated in cells CEM-T4; Baba M. et al. 1987; cited from earlier work.
Series [5] deals with HIV. The arrangement: SI50: unit not given beside the values. Particulars: **Imbach J-L. et al. 1994; cited from earlier work.
Series [6] can be described thus: Cytotoxicity determination (MTT test, 7 days). Particulars: human, CEM-T4 cells. The format is cell-based. As for the experimental part: as §1, §2, §3, §4, §5

With `Cc1cn([C@H]2C[C@H](N=[N+]=[N-])[C@@H](COP(=O)(O)Nc3ccncc3)O2)c(=O)[nH]c1=O` [(XVITc)], in the series on CEM-T4 cells [1], the CC50 is more than 190 µM and the CC90 is more than 190 µM. The same compound returned an EC90 in the series on HIV [2] (CEM-T4 cells, p24 after 8 days) of 0.006 µM. The SI50 in the series on HIV [2] is >>19000.

For `O=c1ccn([C@H]2CC[C@@H](CO)O2)c(=O)[nH]1` [ddU, 2′,3′-dideoxyuridine], the CC50 in the series with CEM-T4 cells [3] was more than 250 µM. Also, in the series on HIV [4], the pEC50 is 4.32 and the SI50 is reported as >5.2*.

For `OC[C@@H]1CC[C@H](n2cnc3c(O)ncnc32)O1` [ddI, 2′,3′-dideoxyinosine], in the series with HIV [5], the pEC50 is 5.96 and the SI50 is recorded as >>91**.

In series [6], `Cc1cn([C@H]2C[C@H](N=[N+]=[N-])[C@@H](CO)O2)c(=O)[nH]c1=O` [AZT, 3′-azido-3′-deoxythymidine] yielded a CC50 at 7 days of 60 µM. Further, in the series with HIV [2] (Human immunodeficiency virus 1, 192 h, CEM-T4 cells, 50% inhibition of HIV replication, p24 after 8 days), the pEC50 is 8.96. Further, in the series on HIV [2] (Human immunodeficiency virus 1, 192 h, CEM-T4 cells, p24 after 8 days), it took 0.016 µM to reach the 90% level (EC90). The compound also yielded an SI50 in the series on HIV [2] of 6000.

Take `Nc1ncnc2c1ncn2[C@H]1CC[C@@H](CO)O1` [ddA, 2′,3′-dideoxyadenosine]: the CC50 with CEM-T4 cells [3] (*Estimated in cells CEM-T4, Baba M. et al. 1987) was more than 250 µM. Further, in the series on HIV [4], the pEC50 was 5.60 and the SI50 is >>100*.
